# Reference: publication PMC4686731, “Screening of Pharmacologically Active Small Molecule Compounds Identifies Antifungal Agents Against Candida Biofilms” (Frontiers in Microbiology, 2015)
# Where two headings read alike, the source gives them in different places.
# How the values were obtained:
# [1] = tested on: C. albicans strain SC5314; test: High-throughput screening (HTS) with antifungal susceptibility test, CellTiter-Glo ATP read-out; type: cell-based, Candida albicans; conditions: for inhibition at 10 µM: Candida albicans, SC5314, 24 h; for fungistatic or fungicidal effect on C. albicans: HTS; for percent inhibition of the metabolic activity (ATP level) of C. albicans: 10 µM
# Protocol: (§1) The in vitro susceptibility of well-characterized wild-type C. albicans strain SC5314, which was provided by Prof. N.A.R. Gow (University of Aberdeen, Aberdeen, UK) was tested against 1280 compounds from the Library of Pharmacologically Active Compounds (LOPAC^1280TM, Sigma–Aldrich, USA). The screen was performed with C. albicans SC5314, and hits were further confirmed with the type strains C. dubliniensis MYA 577, C. glabrata ATCC 2001, C. kusei ATCC 6258, C. palapsilosis ATCC 22019, and C. tropicalis ATCC13803.
# High-Throughput Screening was conducted using ASTs, according to the standard Clinical and Laboratory Standard Institute (CLSI) method ([Watamoto et al., 2009]). Inocula from 24-h yeast cultures on Sabouraud’s dextrose agar (SDA) (Gibco, UK) were adjusted to a turbidity equivalent to a 0.5 McFarland standard at 520 nm using a spectrophotometer. The suspension was diluted further with RPMI 1640 medium (Gibco, UK) to yield an inoculum concentration of 0.5 × 10^3 to 2.5 × 10^3 cells/mL. C. albicans was incubated with small-molecule compounds (10 μM) from LOPAC^1280TM, which total volume was 150 μL, in 96-well plates at 37°C for 24 h to evaluate the antifungal effects. After incubation, the viability of the fungal cells was determined using the CellTiter-Glo luminescent cell viability kit (Promega, USA). The CellTiter-Glo reagent (150 μL) was added to the medium and incubated for 15 min at room temperature with shaking at 900 rpm. The luminescent signals were detected using a luminometer (GloMax Discover System, Promega, USA). The resulting signal intensity corresponds to ATP amounts and thus to the number of viable microbial cells upon drug exposure ([Stylianou et al., 2014]). In all 96-well plates, 100 and 0% growth controls were included as microbes plus dimethyl sulfoxide (0.1%) and microbes plus amphotericin B (100 μM), respectively. All assays were performed at least as two biological replicates in triplicate. The ATP level of C. albicans cells, which corresponded to the cell metabolic activity and viability, was calculated for each compound using the following equation (Figure 1A).
# Percentageinhibition=100 × 1-{(experimental-positivecontrolaverage)/(negativecontrolaverage-positivecontrolaverage)}
# Wells were scored as hits if the percentage inhibition was >50%. Hit compounds were evaluated further to assess their antifungal effects.
# [2] = tested on: C. albicans SC5314 biofilm; test: AST, biofilm mode; type: cell-based; conditions: Candida albicans, read-out: Minimum inhibitory concentration (MIC)
# Protocol: as §1
# (§2) To investigate the antifungal effects of the hit compounds, ASTs were conducted using broth microdilution assays with high cell densities of the planktonic mode, adhesion phase and biofilm mode against Candida strains (C. albicans, C. dubliniensis, C. glabrata, C. kusei, C. palapsilosis, and C. tropicalis). First, high density cell (1 × 10^7 cells/mL) suspensions were added to the RPMI medium containing each hit compound (10–1000 μM) in 96-well plates and incubated at 37°C for 24 h. Next, the 50% minimum inhibitory concentrations (MICs) of high-density Candida planktonic cultures were determined using the CellTiter-Glo luminescent cell viability kit, as described above. The antifungal effects of the hit compounds were also evaluated in the adhesion phase and the biofilm mode, in the same manner as the planktonic mode. Candida biofilms were produced as described previously ([Jin et al., 2004]). In brief, Candida cells were grown on SDA at 37°C for 18 h. A loopful of the yeast culture was then inoculated into yeast nitrogen base (YNB) (Difco, USA) medium supplemented with 50 mM glucose. After overnight broth culture in a rotary shaker at 75 rpm, the cells were washed twice with 20 mL of PBS (pH 7.2, 0.1 M). The yeast cells were re-suspended in YNB supplemented with 100 mM glucose and adjusted to an optical density of 0.38 (1 × 10^7 cells/mL) at 520 nm. This standardized cell suspension was used immediately to form biofilms in the wells of 96-well polystyrene culture plates (Iwaki, Tokyo, Japan). First, the cells were incubated for 90 min at 37°C in a shaker at 75 rpm to allow yeast adherence to the well surface (adhesion phase), before the medium was aspirated and each well was washed once with PBS to remove non-adherent cells. YNB containing 100 mM glucose was then pipetted into each well and the plate was incubated at 37°C in a shaker at 75 rpm for 24 h. Non-adherent cells were removed by pipetting and the biofilms were washed twice with PBS. Following this biofilm growth phase, microscopic examination of the cultures was performed to exclude contamination. These ASTs were repeated on three different occasions.
# [3] = tested on: C. dubliniensis MYA 577 biofilm; test: AST, biofilm mode; type: cell-based; conditions: Candida dubliniensis, MYA577BIOFILM, read-out: Minimum inhibitory concentration (MIC)
# Protocol: as §1, §2
# [4] = tested on: C. glabrata ATCC 2001 biofilm; test: AST, biofilm mode; type: cell-based; conditions: Nakaseomyces glabratus, read-out: Minimum inhibitory concentration (MIC)
# Protocol: as §1, §2
# [5] = tested on: C. kusei ATCC 6258 biofilm; test: AST, biofilm mode; type: cell-based; conditions: read-out: Minimum inhibitory concentration (MIC)
# Protocol: as §1, §2
# [6] = tested on: C. palapsilosis ATCC 22019 biofilm; test: AST, biofilm mode; type: cell-based; conditions: read-out: Minimum inhibitory concentration (MIC)
# Protocol: as §1, §2
# [7] = tested on: C. tropicalis ATCC13803 biofilm; test: AST, biofilm mode; type: cell-based; conditions: Candida tropicalis, read-out: Minimum inhibitory concentration (MIC)
# Protocol: as §1, §2
# [8] = compound 10 μM, 0.5 × 10^3 to 2.5 × 10^3 cells/mL, 37°C, 24 h, read-out: percent inhibition of the metabolic activity (ATP level) of C. albicans
# [9] = compound 10 μM, 0.5 × 10^3 to 2.5 × 10^3 cells/mL, 37°C, 24 h
# [10] = SC5314, biofilm mode (24 h biofilm)
# [11] = ATCC2001, biofilm mode (24 h biofilm)
# [12] = ATCC13803, biofilm mode (24 h biofilm)
Structure (SMILES),"inhibition at 10 µM [1, 8]",fungistatic or fungicidal effect on C. albicans ([1]; compound 10 μM),"percent inhibition of the metabolic activity (ATP level) of C. albicans [1, 9]","MIC [2, 10]",MIC ([3]; biofilm mode (24 h biofilm)),"MIC [4, 11]",MIC ([5]; biofilm mode (24 h biofilm)),MIC ([6]; biofilm mode (24 h biofilm)),"MIC [7, 12]","inhibition at 10 µM ([1]; read-out: percent inhibition of the metabolic activity (ATP level) of C. albicans, compound 10 μM, 0.5 × 10^3 to 2.5 × 10^3 cells/mL, 37°C, 24 h)","MIC ([2]; SC5314, 24 h)",MIC ([3]; 24 h),"MIC ([4]; ATCC2001, 24 h)",MIC ([5]; 24 h),MIC ([6]; 24 h),"MIC ([7]; ATCC13803, 24 h)"
Cc1ccc(S(=O)(=O)/C=C/C#N)cc1 [Bay11-7082],100%,strong fungicidal effects,> 90%,31.3 µM,31.3 µM,62.5 µM,62.5 µM,15.6 µM,62.5 µM,,,,,,,
"C[n+]1cc2c3c(ccc2c2ccc4cc5c(cc4c21)OCO5)OCO3 [Sanguinarine, Sanguinarine chloride hydrate]",,strong fungicidal effects,> 90%,,,,,,,100%,15.6 µM,15.6 µM,15.6 µM,31.3 µM,7.8 µM,31.3 µM
CC(C)(C)c1ccc(S(=O)(=O)/C=C/C#N)cc1 [Bay11-7085],100%,strong fungicidal effects,> 90%,31.3 µM,62.5 µM,62.5 µM,62.5 µM,15.6 µM,62.5 µM,,,,,,,
Cc1c2ccncc2c(C)c2c1[nH]c1ccccc12 [Ellipticine],100%,strong fungicidal effects,> 90%,125 µM,500 µM,62.5 µM,250 µM,250 µM,250 µM,,,,,,,
